Marks after values point to notes of the source that are not given here.
Legend:
[1] = Histopathological change of spleen; type: in vivo, mice; conditions: single: gefitinib 120 mg/kg or SKOG 400 mg/kg, oral, 35 days
COX-2 = assay: Intratumoral COX-2 immune response cells; type: in vivo, mice; conditions: single: gefitinib 120 mg/kg or SKOG 400 mg/kg, oral, 35 days
IFN-γ = assay: Serum IFN-γ level in NCI-H520 xenograft mice; type: in vivo; conditions: single: gefitinib 120 mg/kg or SKOG 400 mg/kg, oral, 35 days
[2] = Periovarian fat weight in NCI-H520 xenograft mice; type: in vivo; conditions: single: gefitinib 120 mg/kg or SKOG 400 mg/kg, oral, 35 days
[3] = Histopathological change of submandibular lymph nodes; type: in vivo, mice; conditions: single: gefitinib 120 mg/kg or SKOG 400 mg/kg, oral, 35 days
[4] = system: NCI-H520 tumor cell xenograft; assay: Histopathological change of tumor mass (tumor cell volume, apoptotic cells); type: in vivo, mice; conditions: single: gefitinib 120 mg/kg or SKOG 400 mg/kg, oral, 35 days
[5] = Histopathological change of periovarian fat; type: in vivo, mice; conditions: single: gefitinib 120 mg/kg or SKOG 400 mg/kg, oral, 35 days
iNOS = assay: Intratumoral iNOS immune response cells; type: in vivo, mice; conditions: single: gefitinib 120 mg/kg or SKOG 400 mg/kg, oral, 35 days
splenic NK cell = assay: Splenic NK cell activity in NCI-H520 xenograft mice; type: in vivo; conditions: single: gefitinib 120 mg/kg or SKOG 400 mg/kg, oral, 35 days
PARP = assay: Intratumoral PARP immune response cells; type: in vivo, mice; conditions: single: gefitinib 120 mg/kg or SKOG 400 mg/kg, oral, 35 days
TNF-α [6] = assay: Splenic TNF-α level in NCI-H520 xenograft mice; type: in vivo; conditions: single: gefitinib 120 mg/kg or SKOG 400 mg/kg, oral, 35 days
[7] = Submandibular lymph node weight in NCI-H520 xenograft mice; type: in vivo; conditions: single: gefitinib 120 mg/kg or SKOG 400 mg/kg, oral, 35 days
[8] = system: NCI-H520 tumor cell xenograft; assay: Tumor volume in NCI-H520 xenograft mice; type: in vivo; conditions: single: gefitinib 120 mg/kg or SKOG 400 mg/kg
IL-10 = assay: Splenic IL-10 level in NCI-H520 xenograft mice; type: in vivo; conditions: single: gefitinib 120 mg/kg or SKOG 400 mg/kg, oral, 35 days
[9] = Body weight and weight gain in NCI-H520 xenograft mice; type: in vivo; conditions: single: gefitinib 120 mg/kg or SKOG 400 mg/kg
IL-1β = assay: Splenic IL-1β level in NCI-H520 xenograft mice; type: in vivo; conditions: single: gefitinib 120 mg/kg or SKOG 400 mg/kg, oral, 35 days
[10] = system: NCI-H520 tumor cell xenograft; assay: Tumor weight in NCI-H520 xenograft mice; type: in vivo; conditions: single: gefitinib 120 mg/kg or SKOG 400 mg/kg, oral, 35 days
IL-6 = assay: Serum IL-6 level in NCI-H520 xenograft mice; type: in vivo; conditions: single: gefitinib 120 mg/kg or SKOG 400 mg/kg, oral, 35 days
TNF-α [11] = assay: Intratumoral TNF-α immune response cells; type: in vivo, mice; conditions: single: gefitinib 120 mg/kg or SKOG 400 mg/kg, oral, 35 days
peritoneal NK cell = assay: Peritoneal NK cell activity in NCI-H520 xenograft mice; type: in vivo; conditions: single: gefitinib 120 mg/kg or SKOG 400 mg/kg, oral, 35 days
Caspase-3 = assay: Intratumoral caspase-3 immune response cells; type: in vivo, mice; conditions: single: gefitinib 120 mg/kg or SKOG 400 mg/kg, oral, 35 days
[12] = Spleen weight in NCI-H520 xenograft mice; type: in vivo; conditions: single: gefitinib 120 mg/kg or SKOG 400 mg/kg, oral, 35 days

Question: With `COc1cc2ncnc(Nc3ccc(F)c(Cl)c3)c2cc1OCCCN1CCOCC1` [Gefitinib, N-(3-chloro-4-fluorophenyl)-7-methoxy-6-(3-morpholinopropoxy)quinazolin-4-amine] as the compound, how does the “Number of splenic white pulps” value [1] read?
Answer: 4.63 ± 1.85^a /mm^2

Question: What about the “Splenic white pulp diameter” value [1] of the same compound?
Answer: 187.63 ± 73.54^e μm/white pulp

Question: What about the “change of number of splenic white pulps compared with tumor xenograft control group” value [1] of the same compound?
Answer: −5.13%

Question: What about the “change of splenic overall thickness compared with tumor xenograft control group” value [1] of the same compound?
Answer: 0.42%

Question: And the “change of splenic white pulp diameter compared with tumor xenograft control group” value [1]?
Answer: −0.60%

Question: And the “Percentage of immune-responsive cells, COX-2” value (COX-2)?
Answer: 38.89 %/tumor cells

Question: And the “change of proportion of COX-2 immune response cells in the tumor tissue compared with tumor xenograft control group” value (COX-2)?
Answer: −35.00%

Question: And the “change of serum IFN-γ level compared with tumor xenograft control group” value (IFN-γ)?
Answer: −2.85%

Question: What about the “Periovarian fat (absolute weight)” value [2] of the same compound?
Answer: 0.007 ± 0.002^d

Question: And the “Periovarian fat (relative weight)” value [2]?
Answer: 0.036 ± 0.011^e

Question: And the “change of absolute periovarian fat weight compared with tumor xenograft control group” value [2]?
Answer: −13.43%

Question: What about the “change of relative periovarian fat weight compared with tumor xenograft control group” value [2] of the same compound?
Answer: −2.79%

Question: What about the “Number of intracortical follicles” value [3] of the same compound?
Answer: 5.38 ± 2.39^d /mm^2

Question: What about the “change of number of intracortical follicles in the submandibular lymph nodes compared with tumor xenograft control group” value [3] of the same compound?
Answer: −6.52%

Question: What about the “change of submandibular lymph node cortex thickness compared with tumor xenograft control group” value [3] of the same compound?
Answer: −3.84%

Question: What about the “change of submandibular lymph node overall thickness compared with tumor xenograft control group” value [3] of the same compound?
Answer: −2.55%

Question: What about the cortex thickness [3] of the same compound?
Answer: 215.75 ± 43.93^d μm/lymph node

Question: What about the “submandibular lymph node overall thickness” value [3] of the same compound?
Answer: 501.50 ± 106.64^a μm/central region

Question: What about the “Percentage of apoptotic cells” value [4] of the same compound?
Answer: 49.88%

Question: And the Tumor cell volume [4]?
Answer: 56.28 %/mm^2

Question: And the “change of proportion of apoptotic cells in the tumor tissue compared with tumor xenograft control group” value [4]?
Answer: 560.23%

Question: And the “change of proportion of tumor cells in the tumor tissue compared with tumor xenograft control group” value [4]?
Answer: −29.01%

Question: And the “White fat cell average diameter” value [5]?
Answer: 12.36 ± 1.95^d μm

Question: What about the “change of periovarian accumulation fat thickness compared with tumor xenograft control group” value [5] of the same compound?
Answer: −8.19%

Question: And the “change of white fat cell average diameter compared with tumor xenograft control group” value [5]?
Answer: −6.37%

Question: And the “Percentage of immune-responsive cells, iNOS” value (iNOS)?
Answer: 12.07 %/tumor cells

Question: And the “change of proportion of iNOS immune response cells in the tumor tissue compared with tumor xenograft control group” value (iNOS)?
Answer: −0.50%

Question: And the “change of splenic NK cell activity compared with tumor xenograft control group” value (splenic NK cell)?
Answer: −6.32%

Question: And the “Percentage of immune-responsive cells, PARP” value (PARP)?
Answer: 46.98 %/tumor cells

Question: And the “change of proportion of PARP immune response cells in the tumor tissue compared with tumor xenograft control group” value (PARP)?
Answer: 223.59%

Question: And the “Splenic TNF-α (Tumor necrosis factor-α) level” value (TNF-α [6])?
Answer: 26.23 ± 10.81^a

Question: What about the “change of splenic TNF-α level compared with tumor xenograft control group” value (TNF-α [6]) of the same compound?
Answer: −0.24%

Question: And the “Submandibular lymph nodes (absolute weight)” value [7]?
Answer: 0.004 ± 0.001^d

Question: And the “change in absolute submandibular lymph node weight compared with tumor xenograft control group” value [7]?
Answer: −8.82%

Question: What about the “change in relative submandibular lymph node weight compared with tumor xenograft control group” value [7] of the same compound?
Answer: 1.85%

Question: And the “submandibular lymph nodes (relative weight)” value [7]?
Answer: 0.019 ± 0.006^e

Question: And the “Tumor volume, start of administration [A]” value ([8]; baseline)?
Answer: 462.10 ± 105.87 mm^3

Question: What about the “Tumor volume change [B − A]” value ([8]; oral, 35 days) of the same compound?
Answer: 2396.41 ± 329.84 ^a mm^3

Question: What about the “Tumor volume, at the time of sacrifice [B]” value ([8]; oral, 35 days) of the same compound?
Answer: 2858.51 ± 377.01^a mm^3

Question: And the “change in tumor volume during drug administration period compared with tumor xenograft control group” value ([8]; oral, five weeks)?
Answer: −60.18%

Question: What about the “Splenic IL-10 (Interleukin-10) level” value (IL-10) of the same compound?
Answer: 25.58 ± 11.94^a

Question: What about the “change of splenic IL-10 level compared with tumor xenograft control group” value (IL-10) of the same compound?
Answer: −3.53%

Question: And the “Body weight, administration initiation” value ([9]; baseline)?
Answer: 19.29 ± 1.29 g

Question: And the “Actual body weight (excluding tumor weight)” value ([9]; oral, 35 days)?
Answer: 18.46 ± 0.77^ad g

Question: What about the “Body weight, sacrifice” value ([9]; oral, 35 days) of the same compound?
Answer: 20.13 ± 0.76^fg

Question: What about the Weight gain ([9]; oral, 35 days) of the same compound?
Answer: −0.83 ± 0.98^ac g

Question: What about the “change of actual body weight excluding tumor weight compared with tumor xenograft group” value ([9]; oral, 35 days) of the same compound?
Answer: −6.61%

Question: And the “change of weight gain during administration period compared with tumor xenograft control group” value ([9]; oral, 35 days)?
Answer: −341.95%

Question: And the “Splenic IL-1β (Interleukin-1β) level” value (IL-1β)?
Answer: 8.36 ± 1.96^a

Question: What about the “change of splenic IL-1β level compared with tumor xenograft control group” value (IL-1β) of the same compound?
Answer: −3.18%

Question: What about the “Tumor weight (absolute weight)” value [10] of the same compound?
Answer: 1.664 ± 0.292^f

Question: And the “Tumor weight (relative weight)” value [10]?
Answer: 8.274 ± 1.443^g

Question: What about the “change in absolute tumor weight compared with tumor xenograft control group” value [10] of the same compound?
Answer: −40.73%

Question: What about the “change in relative tumor weight compared with tumor xenograft control group” value [10] of the same compound?
Answer: −33.56%

Question: What about the “change of serum IL-6 level compared with tumor xenograft control group” value (IL-6) of the same compound?
Answer: 6.25%

Question: And the “Percentage of immune-responsive cells, TNF-α” value (TNF-α [11])?
Answer: 7.28 %/tumor cells

Question: And the “change of proportion of TNF-α immune response cells in the tumor tissue compared with tumor xenograft control group” value (TNF-α [11])?
Answer: −6.19%

Question: What about the “change of peritoneal NK cell activity compared with tumor xenograft control group” value (peritoneal NK cell) of the same compound?
Answer: −7.43%

Question: What about the “Percentage of immune-responsive cells, Caspase-3” value (Caspase-3) of the same compound?
Answer: 40.60 %/tumor cells

Question: What about the “change of proportion of caspase-3 immune response cells in the tumor tissue compared with tumor xenograft control group” value (Caspase-3) of the same compound?
Answer: 268.77%

Question: And the “Spleen (absolute weight)” value [12]?
Answer: 0.051 ± 0.007^a

Question: And the “Spleen (relative weight)” value [12]?
Answer: 0.251 ± 0.036^a

Question: And the “change of absolute spleen weight compared with tumor xenograft control group” value [12]?
Answer: −7.13%

Question: What about the “change of relative spleen weight compared with tumor xenograft control group” value [12] of the same compound?
Answer: 4.11%
